Test results published in patent US20180320217A1, “METHODS FOR SAMPLING AND MEASURING ORAL LAVAGE PROTEINS” (The Procter & Gamble Company, priority 2017, published 2018).
Several values for one entry are separate records, joined by “and”; a condition that tells them apart may be missing. Equal values may be shown once. Entries after “also recorded” stand apart in the source; their conditions may differ. Where a name gives a salt, the structure may show the parent alone.

Columns and labels:
[1] = UV absorbance analysis of formazan products, TABLE 6; settings: in the presence of 1-methoxy PMS
Malate dehydrogenase [2] = target: T1, Malate dehydrogenase (Sus scrofa, UniProt P00346); assay: Effect of concentrations of NAD+ on formation of formazan dyes (FIG. 5); format: biochemical; design: purchased Sigma-Aldrich 10127248001 / 10127914001 (MDH); settings: 2 mM WST-8, 15 mM malate, 1.5 units malate dehydrogenase
T1 sequence (P00346 25-338): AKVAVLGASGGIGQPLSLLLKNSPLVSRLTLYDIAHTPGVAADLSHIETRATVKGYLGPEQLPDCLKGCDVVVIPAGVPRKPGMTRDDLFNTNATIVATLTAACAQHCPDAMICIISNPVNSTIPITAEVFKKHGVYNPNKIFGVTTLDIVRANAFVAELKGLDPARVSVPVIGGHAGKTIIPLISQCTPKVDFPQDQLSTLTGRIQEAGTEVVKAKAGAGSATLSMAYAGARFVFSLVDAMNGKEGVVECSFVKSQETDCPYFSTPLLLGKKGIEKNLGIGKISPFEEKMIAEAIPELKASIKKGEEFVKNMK
Description: To determine optimal conditions for quantifying enzymes in the gingival brush samples, oral lavage and gingival plaques, an experiment was carried out to determine the effect of NAD+ on conversion of tetrazolium salts to formazan dyes. […] Absorbance was taken at every 5 minutes for 2 hours.

diaphorase [3] = assay: Formation of formazan dyes: NADH and diaphorase, absence of malate (TABLE 7); format: biochemical, Clostridium kluyveri; settings: NADH and diaphorase, absence of malate
diaphorase [4] = assay: Formation of formazan dyes: NADH, diaphorase and malate (TABLE 8); format: biochemical, Clostridium kluyveri; settings: NADH, diaphorase and malate
[5] = test system: Malate dehydrogenase and diaphorase; assay: Formation of formazan dyes: Malate dehydrogenase and diaphorase, absence of malate (TABLE 9); format: biochemical, pig heart
[6] = test system: Malate dehydrogenase and diaphorase; assay: Formation of formazan dyes: Malate dehydrogenase, diaphorase and malate (TABLE 10); format: biochemical, pig heart
oral lavage [7] = assay: Formation of formazan dyes: oral lavage and diaphorase, not malate (TABLE 11); format: biochemical, human
oral lavage [8] = assay: Formation of formazan dyes: oral lavage, malate and diaphorase (TABLE 12); format: biochemical, human; settings: oral lavage, malate and diaphorase
diaphorase [9] = assay: Formation of formazan dyes: only diaphorase, not malate (TABLE 13); format: biochemical, Clostridium kluyveri; settings: mean of three experiments
diaphorase [10] = assay: Formation of formazan dyes: only diaphorase and malate (TABLE 14); format: biochemical, Clostridium kluyveri; settings: mean of three experiments
[11] = Formation of formazan dyes: NADH and 1-methoxy PMS, absence of malate (TABLE 15); format: biochemical
[12] = Formation of formazan dyes: NADH, malate and 1-methoxy PMS (TABLE 16); format: biochemical; settings: monosodium salt
oral lavage [13] = assay: Formation of formazan dyes: oral lavage and 1-Methoxy PMS, absence of malate (TABLE 19); format: biochemical, human; settings: monosodium salt
[14] = Formation of formazan dyes: control buffer and 1-Methoxy PMS, absence of malate (TABLE 21); format: biochemical; settings: monosodium salt
[15] = Formation of formazan dyes: control buffer, malate and 1-Methoxy PMS (TABLE 22); format: biochemical
diaphorase [16] = assay: Effect of concentrations of tetrazolium salts on formation of formazan dyes (FIGS. 4A-4G); format: biochemical; settings: 15 mM NADH+H, 20 μg diaphorase, pH 7.5; FIGS. 4A to 4G
Description: On the idea that higher concentrations of tetrazolium salts in the assay buffer would likely result in more formazan dyes in the reaction, various concentrations of tetrazolium salts were added to a reaction buffer and the formation of formazan dyes were measured at 0, 30 and 60 minutes. […] The reactions were performed at room temperature. Absorbance was taken at 0, 30 and 60 minutes.

Malate dehydrogenase [17] = target: T1, Malate dehydrogenase; assay: Formation of formazan dyes: Malate dehydrogenase and 1-Methoxy PMS, absence of malate (TABLE 17); format: biochemical, pig heart; design: L-malate dehydrogenase (pig heart); purchased Sigma-Aldrich 10127248001 / 10127914001
Malate dehydrogenase [18] = target: T1, Malate dehydrogenase; assay: Effect of concentrations of malate on formation of formazan dyes (FIG. 6); format: biochemical; design: purchased Sigma-Aldrich 10127248001 / 10127914001 (MDH); settings: 2 mM WST-8, 128.5 μM NAD+, 1.5 units malate dehydrogenase
Description: Substrate concentrations are important parameters in an enzymatic assay. An experiment was carried out to determine the effect of malate concentrations on formation of formazan dyes. […] Absorbance was measured every 5 minutes for 2 hours. […] But at low concentrations from 0.001 mM to 15.6 mM, formation of formazan dyes was positively correlated with malate concentrations.

O=[N+]([O-])c1ccc(-n2nc(-c3ccccc3)n[n+]2-c2ccc(/N=N/c3ccc(S(=O)(=O)O)cc3)cc2S(=O)(=O)[O-])cc1 [WST-9, 2-(4-Nitrophenyl)-5-phenyl-3-[4-(4-sulfophenylazo)-2-sulfophenyl]-2H-tetrazolium, monosodium salt]
solubility of formazan products [1]: form precipitates

NC(=O)c1ccc[n+]([C@@H]2O[C@H](COP(=O)([O-])OP(=O)(O)OC[C@H]3O[C@@H](n4cnc5c(N)ncnc54)[C@H](O)[C@@H]3O)[C@@H](O)[C@H]2O)c1 [NAD+, Nicotinamide adenine dinucleotide]
amount of formazan formation versus NAD+ concentration (Malate dehydrogenase [2]): proportional to the concentrations of NAD+

COc1cc([N+](=O)[O-])ccc1-[n+]1nc(-c2ccc(S(=O)(=O)[O-])cc2S(=O)(=O)[O-])nn1-c1ccc([N+](=O)[O-])cc1.[Na+] [WST-8, 5-(2,4-disulfophenyl)-3-(2-methoxy-4-nitrophenyl)-2-(4-nitrophenyl)-2H-tetrazolium, inner salt, monosodium salt]
Formation of formazan dyes, absorbance, Means 0 h (diaphorase [3]; 0 h): 3.54
Formation of formazan dyes, absorbance, Means 1 h (diaphorase [3]; 1 h): 3.72
Formation of formazan dyes, absorbance, Means 2 h (diaphorase [3]; 2 h): 3.77
Formation of formazan dyes, absorbance, Means 3 h (diaphorase [3]; 3 h): 3.77
Formation of formazan dyes, absorbance, Means 4 h (diaphorase [3]; 4 h): 3.63
Formation of formazan dyes, absorbance, Means 6 h (diaphorase [3]; 6 h): 3.64
Formation of formazan dyes, absorbance, Means 8 h (diaphorase [3]; 8 h): 3.66
Formation of formazan dyes, absorbance, Means 10 h (diaphorase [3]; 10 h): 3.65
Formation of formazan dyes, absorbance, Means 12 h (diaphorase [3]; 12 h): 3.67
Formation of formazan dyes, absorbance, Means 0 h (diaphorase [4]; 0 h): 3.06
Formation of formazan dyes, absorbance, Means 1 h (diaphorase [4]; 1 h): 3.36
Formation of formazan dyes, absorbance, Means 2 h (diaphorase [4]; 2 h): 3.47
Formation of formazan dyes, absorbance, Means 3 h (diaphorase [4]; 3 h): 3.53
Formation of formazan dyes, absorbance, Means 4 h (diaphorase [4]; 4 h): 3.50
Formation of formazan dyes, absorbance, Means 6 h (diaphorase [4]; 6 h): 3.54
Formation of formazan dyes, absorbance, Means 8 h (diaphorase [4]; 8 h): 3.54
Formation of formazan dyes, absorbance, Means 10 h (diaphorase [4]; 10 h): 3.51
Formation of formazan dyes, absorbance, Means 12 h (diaphorase [4]; 12 h): 3.45
Formation of formazan dyes, absorbance, Means 0 h ([5]; Malate dehydrogenase and diaphorase, absence of malate, 0 h): 1.13
Formation of formazan dyes, absorbance, Means 1 h ([5]; Malate dehydrogenase and diaphorase, absence of malate, 1 h): 1.84
Formation of formazan dyes, absorbance, Means 2 h ([5]; Malate dehydrogenase and diaphorase, absence of malate, 2 h): 2.15
Formation of formazan dyes, absorbance, Means 3 h ([5]; Malate dehydrogenase and diaphorase, absence of malate, 3 h): 2.32
Formation of formazan dyes, absorbance, Means 4 h ([5]; Malate dehydrogenase and diaphorase, absence of malate, 4 h): 2.41
Formation of formazan dyes, absorbance, Means 6 h ([5]; Malate dehydrogenase and diaphorase, absence of malate, 6 h): 2.62
Formation of formazan dyes, absorbance, Means 8 h ([5]; Malate dehydrogenase and diaphorase, absence of malate, 8 h): 2.72
Formation of formazan dyes, absorbance, Means 10 h ([5]; Malate dehydrogenase and diaphorase, absence of malate, 10 h): 2.80
Formation of formazan dyes, absorbance, Means 12 h ([5]; Malate dehydrogenase and diaphorase, absence of malate, 12 h): 2.89
reduction of tetrazolium dye in the absence of substrate malate ([5]; malate dehydrogenase and diaphorase (TABLE 9)): partially reduced
Formation of formazan dyes, absorbance, Means 0 h ([6]; Malate dehydrogenase, diaphorase and malate, 0 h): 1.13
Formation of formazan dyes, absorbance, Means 1 h ([6]; Malate dehydrogenase, diaphorase and malate, 1 h): 1.93
Formation of formazan dyes, absorbance, Means 2 h ([6]; Malate dehydrogenase, diaphorase and malate, 2 h): 2.36
Formation of formazan dyes, absorbance, Means 3 h ([6]; Malate dehydrogenase, diaphorase and malate, 3 h): 2.65
Formation of formazan dyes, absorbance, Means 4 h ([6]; Malate dehydrogenase, diaphorase and malate, 4 h): 2.86
Formation of formazan dyes, absorbance, Means 6 h ([6]; Malate dehydrogenase, diaphorase and malate, 6 h): 3.12
Formation of formazan dyes, absorbance, Means 8 h ([6]; Malate dehydrogenase, diaphorase and malate, 8 h): 3.26
Formation of formazan dyes, absorbance, Means 10 h ([6]; Malate dehydrogenase, diaphorase and malate, 10 h): 3.30
Formation of formazan dyes, absorbance, Means 12 h ([6]; Malate dehydrogenase, diaphorase and malate, 12 h): 3.28
conversion to reduced formazan dyes ([6]; malate dehydrogenase, diaphorase and malate (TABLE 10), monosodium salt): converted to reduced formazan dyes in a time-dependent fashion; also recorded: able to catalyze the reduction
Formation of formazan dyes, absorbance, Means 0 h (oral lavage [7]; oral lavage and diaphorase, not malate, 0 h): 0.59
Formation of formazan dyes, absorbance, Means 1 h (oral lavage [7]; oral lavage and diaphorase, not malate, 1 h): 0.83
Formation of formazan dyes, absorbance, Means 2 h (oral lavage [7]; oral lavage and diaphorase, not malate, 2 h): 0.87
Formation of formazan dyes, absorbance, Means 3 h (oral lavage [7]; oral lavage and diaphorase, not malate, 3 h): 0.84
Formation of formazan dyes, absorbance, Means 4 h (oral lavage [7]; oral lavage and diaphorase, not malate, 4 h): 0.82
Formation of formazan dyes, absorbance, Means 6 h (oral lavage [7]; oral lavage and diaphorase, not malate, 6 h): 0.88
Formation of formazan dyes, absorbance, Means 8 h (oral lavage [7]; oral lavage and diaphorase, not malate, 8 h): 1.00
Formation of formazan dyes, absorbance, Means 10 h (oral lavage [7]; oral lavage and diaphorase, not malate, 10 h): 1.00
Formation of formazan dyes, absorbance, Means 12 h (oral lavage [7]; oral lavage and diaphorase, not malate, 12 h): 1.01
reduction to formazan dyes by pooled oral lavage (oral lavage [7]; pooled oral lavage of high bleeder group, diaphorase, no added malate (TABLE 11)): partially reduced to formazan dyes
Formation of formazan dyes, absorbance, Means 0 h (oral lavage [8]; 0 h): 0.51
Formation of formazan dyes, absorbance, Means 1 h (oral lavage [8]; 1 h): 0.70
Formation of formazan dyes, absorbance, Means 2 h (oral lavage [8]; 2 h): 0.80
Formation of formazan dyes, absorbance, Means 3 h (oral lavage [8]; 3 h): 0.84
Formation of formazan dyes, absorbance, Means 4 h (oral lavage [8]; 4 h): 0.85
Formation of formazan dyes, absorbance, Means 6 h (oral lavage [8]; 6 h): 0.91
Formation of formazan dyes, absorbance, Means 8 h (oral lavage [8]; 8 h): 1.05
Formation of formazan dyes, absorbance, Means 10 h (oral lavage [8]; 10 h): 1.09
Formation of formazan dyes, absorbance, Means 12 h (oral lavage [8]; 12 h): 1.33
Absorbance, formation of formazan dyes (Means) (diaphorase [9]; 0 h): 0.22
Absorbance, formation of formazan dyes (Means) (diaphorase [9]; 1 h): 0.38
Absorbance, formation of formazan dyes (Means) (diaphorase [9]; 2 h): 0.46
Absorbance, formation of formazan dyes (Means) (diaphorase [9]; 3 h): 0.48
Absorbance, formation of formazan dyes (Means) (diaphorase [9]; 4 h): 0.43
Absorbance, formation of formazan dyes (Means) (diaphorase [9]; 6 h): 0.46
Absorbance, formation of formazan dyes (Means) (diaphorase [9]; 8 h): 0.44
Absorbance, formation of formazan dyes (Means) (diaphorase [9]; 10 h): 0.44
Absorbance, formation of formazan dyes (Means) (diaphorase [9]; 12 h): 0.47
Absorbance, formation of formazan dyes (Means) (diaphorase [10]; 0 h): 0.10
Absorbance, formation of formazan dyes (Means) (diaphorase [10]; 1 h): 0.14
Absorbance, formation of formazan dyes (Means) (diaphorase [10]; 2 h): 0.16
Absorbance, formation of formazan dyes (Means) (diaphorase [10]; 3 h): 0.19
Absorbance, formation of formazan dyes (Means) (diaphorase [10]; 4 h): 0.21
Absorbance, formation of formazan dyes (Means) (diaphorase [10]; 6 h): 0.26
Absorbance, formation of formazan dyes (Means) (diaphorase [10]; 8 h): 0.31
Absorbance, formation of formazan dyes (Means) (diaphorase [10]; 10 h): 0.35
Absorbance, formation of formazan dyes (Means) (diaphorase [10]; 12 h): 0.38
formation of formazan dyes / precipitates with 1-methoxy PMS and NADH [11]: converted to formazan dyes quickly
Absorbance, formation of formazan dyes (Means) ([11]; monosodium salt): 3.65 and 3.66 and 3.67
Absorbance, formation of formazan dyes (Means) [12]: 3.37 and 3.42 and 3.41
Absorbance, formation of formazan dyes (Means) (oral lavage [13]): 1.03 and 1.38 and 1.68 and 1.86
Absorbance, formation of formazan dyes (Means) [14]: 0.44 and 0.55 and 0.49 and 0.62
Means absorbance 0 h [15]: 0.19
Means absorbance 1 h [15]: 0.20
Means absorbance 2 h [15]: 0.23
Means absorbance 3 h [15]: 0.26
concentration of tetrazolium salt at which absorbance reached peaks (diaphorase [16]): 2 mM
reduction by malate dehydrogenase alone (Malate dehydrogenase [17]): did not catalyze the reduction
Absorbance, formation of formazan dyes (Means) (Malate dehydrogenase [17]; monosodium salt): 0.35 and 0.47

O=C(O)CC(O)C(=O)O (stereo not drawn) [malate]
malate concentrations that inhibited production of formazan dyes (Malate dehydrogenase [18]): above 65 mM
